Series [1] relates to rat. To be noted: Sub-acute repeat dose toxicity, sprague dawley, Oral, Gavage/Intubation, dose end: 14 day, group: systemic.
The subject of series [2] is rat. The following applies: Sub-acute repeat dose toxicity, Oral, Gavage/Intubation, dose end: 7 day, group: systemic.
The test system of the next series is dog. The following applies: Sub-acute repeat dose toxicity, beagle, Oral, Gavage/Intubation, dose end: 14 day, group: systemic.
Series [3] deals with rat. The following applies: Sub-acute repeat dose toxicity; Oral; Gavage/Intubation; dose end: 14 day; group: systemic; systemic / in life observation / clinical signs / convulsions + systemic / in life observation / clinical signs / reduced activity + ….
In series [4] the test system is rat. The following applies: Sub-acute repeat dose toxicity, sprague dawley, Oral, Gavage/Intubation, dose end: 30 day, group: systemic.
The mark [5] stands for this setting: systemic / clinical chemistry / [other] / [other] + systemic / in life observation / body weight / body weight gain + systemic / in life ….
The mark [6] stands for this setting: systemic / pathology microscopic / liver / fatty change + systemic / pathology microscopic / liver / hypertrophy.
Setting [7] is: systemic / clinical chemistry / cholesterol / cholesterol + systemic / clinical chemistry / gamma glutamyl transferase (ggt) / gamma ….
Where [8] appears, read: systemic / in life observation / clinical signs / abnormal feces + systemic / in life observation / clinical signs / arrhythmia.
Setting [9] is: systemic / in life observation / clinical signs / abnormal feces + systemic / in life observation / clinical signs / arrhythmia + systemic….
Where [10] appears, read: systemic / clinical chemistry / aspartate aminotransferase (ast/sgot) / aspartate aminotransferase (ast/sgot) + systemic / clinical ….

For `CC[C@H]1CC[C@H](NCc2cc3c(cc2OC)[C@H]2C[C@H]2C(=O)N3C)[C@H](c2ccccc2)N1`, the LOAEL in the series with rat [1] (setting [5]) was over 100 mg/kg/day; with rat [2] (setting [7]), over 100 mg/kg/day; in the series on dog (setting [9]), over 15 mg/kg/day; in the series on rat [3], over 100 mg/kg/day; in the series on rat [4] (setting [10]) it was over 100 mg/kg/day. Moreover, the NOAEL was at least 100 mg/kg/day with rat [1] (setting [5]); at least 100 mg/kg/day with rat [2] (setting [7]); at least 15 mg/kg/day with dog (setting [9]); at least 100 mg/kg/day with rat [3]; at least 100 mg/kg/day in the series on rat [4] (setting [10]). Also, the LEL in the series on rat [1] (setting [6]) came out at 6 mg/kg/day; with rat [2] (systemic / organ weight / liver / absolute), 30 mg/kg/day; in the series on dog (setting [8]), 3 mg/kg/day; in the series with rat [3], 100 mg/kg/day; in the series on rat [4] (systemic / in life observation / clinical signs / salivation + systemic / organ weight / liver / absolute), 30 mg/kg/day. The NEL with rat [1] (setting [6]) is under 6 mg/kg/day; in the series on rat [2] (setting [7]), 3 mg/kg/day; in the series on dog (setting [8]), under 3 mg/kg/day; in the series with rat [4] (setting [10]) it was 3 mg/kg/day.

The term LOAEL denotes the lowest tested level that showed an adverse finding. As usually defined, the NOAEL is the highest tested level that showed no adverse finding.

Source of the values: EPA's ToxRefDB 2.
